Assay results: US20230303493A1, “ANTIBACTERIAL ADJUVANTS AND APPLICATIONS THEREOF” (THE TRUSTEES OF PRINCETON UNIVERSITY, priority 2020, published 2023)

The compounds below were run on P. aeruginosa PA14 (assay: IC50 of compounds in conjunction with colistin relative to P. aeruginosa (growth, absorbance at 600 nm)). Details: Pseudomonas aeruginosa, PA14, 17 h.
Type: cell-based
Description: Various compounds of formula I in Example 1 above were tested to determine IC50 of the compounds in conjunction with colistin relative to P. aeruginosa. IC50 testing of the compounds was conducted to the following protocol. Overnight cultures of P. aeruginosa PA14 were back diluted into fresh LB to an OD600 of 2.5×10^−3. Using polypropylene 96 well plates (Corning 3879), the potential antibiotic adjuvant was assayed with a 3-fold dilution starting with a […]. The concentration of colistin was held constant at sublethal concentration ([…]), using a freshly prepared colistin stock and minimizing transfers of colistin-containing solutions. After 17 h of aerobic growth at 37° C., 300 rpm, the absorbance at 600 nm was recorded.
For `C#Cc1ccc(OCCCCCC(=O)Nc2ccnc(C(F)(F)F)c2)cc1` [Compound S20, 6-(4-Ethynylphenoxy)-N-(2-(trifluoromethyl)pyridin-4-yl)hexanamide], the IC50 was 15.5 µM.

Same assay, conditions: Pseudomonas aeruginosa; P. aeruginosa PA14 in LB; colistin held constant at sublethal concentration (0.25 to 0.375 pg/mL); 3-fold dilution starting with a 250 concentration; 17 h aerobic growth at 37° C.; absorbance at 600 nm; read-out: IC50
With `CSc1ccc(OCCCCCC(=O)Nc2ccnc(C(F)(F)F)c2)cc1` [Compound S17, 6-(4-(Methylthio)phenoxy)-N-(2-(trifluoromethyl)pyridin-4-yl)hexanamide] the IC50 was 14 µM.
`O=C(CCCCCN1CCN(c2ccccn2)CC1)Nc1ccnc(C(F)(F)F)c1` [Compound S41, 6-(4-(Pyridin-2-yl)piperazin-1-yl)-N-(2-(trifluoromethyl)pyridin-4-yl)hexanamide] was tested, and the IC50 was 95 µM.
With `O=C(CCCCCOc1ccc2ccccc2c1)Nc1ccnc(C(F)(F)F)c1` [Compound S38, 6-(Naphthalen-2-yloxy)-N-(2-(trifluoromethyl)pyridin-4-yl)hexanamide] the IC50 was 2.6 µM.
`CC(C)(C)c1cccc(OCCCCCC(=O)Nc2ccnc(C(F)(F)F)c2)c1` [Compound S28, 6-(3-(tert-Butyl)phenoxy)-N-(2-(trifluoromethyl)pyridin-4-yl)hexanamide] gave an IC50 of 0.8 µM.
With `COC(=O)c1ccc(OCCCCCC(=O)Nc2ccnc(C(F)(F)F)c2)cc1` [Compound S34, Methyl 4-((6-oxo-6-((2-(trifluoromethyl)pyridin-4-yl)amino)hexyl)oxy)benzoate] the IC50 was 88 µM.
With `O=C(CCCCCN1CCN(c2cccnc2)CC1)Nc1ccnc(C(F)(F)F)c1` [Compound S42, 6-(4-(Pyridin-3-yl)piperazin-1-yl)-N-(2-(trifluoromethyl)pyridin-4-yl)hexanamide] the IC50 was 70 µM.
Work on `CC(=O)c1ccccc1OCCCCCC(=O)Nc1ccnc(C(F)(F)F)c1` [Compound S32, 6-(2-Acetylphenoxy)-N-(2-(trifluoromethyl)pyridin-4-yl)hexanamide] yielded an IC50 of 57 µM.
Compound `CC(C)(C)c1ccc(OCCCCCC(=O)Nc2ccnc(C(F)(F)F)c2)cc1` [Compound S27, 6-(4-(tert-Butyl)phenoxy)-N-(2-(trifluoromethyl)pyridin-4-yl)hexanamide] has an IC50 of 2.6 µM.
`O=C(CCCCCN1CCN(c2ccncc2)CC1)Nc1ccnc(C(F)(F)F)c1` [Compound S43, 6-(4-(Pyridin-4-yl)piperazin-1-yl)-N-(2-(trifluoromethyl)pyridin-4-yl)hexanamide] was tested, and the IC50 was 75 µM.
In the case of `O=C(CCCCCOc1ccc(C(=O)OCc2ccccc2)cc1)Nc1ccnc(C(F)(F)F)c1` [Compound S30, Benzyl 4-((6-oxo-6((2-(trifluoromethyl)pyridin-4-yl)amino)hexyl)oxy)benzoate], the IC50 is reported as 2.6 µM.
`O=C(CCCCCOc1cccc2ccccc12)Nc1ccnc(C(F)(F)F)c1` [Compound S39, 6-(Naphthalen-1-yloxy)-N-(2-(trifluoromethyl)pyridin-4-yl)hexanamide] showed an IC50 of 15 µM.
Work on `C#Cc1ccccc1OCCCCCC(=O)Nc1ccnc(C(F)(F)F)c1` [Compound S22, 6-(2-Ethynylphenoxy)-N-(2-(trifluoromethyl)pyridin-4-yl)hexanamide] yielded an IC50 of 15.5 µM.
In the case of `O=C(CCCCCN1CCN(c2ccccc2)CC1)Nc1ccnc(C(F)(F)F)c1` [Compound S40, 6-(4-Phenylpiperazin-1-yl)-N-(2-(trifluoromethyl)pyridin-4-yl)hexanamide], the IC50 is reported as 50 µM.
